The record followed here is patent US20250059198A1, “BRM DEGRADING COMPOUNDS AND ASSOCIATED METHODS OF USE” (Arvinas Operations, Inc., priority 2021, published 2025).

Molecules are shown by their SMILES.

The target of the test is T1, BRM (Homo sapiens, UniProt P51531).
T1 construct: Western Blot Screen of BRM Degradation in SW1573 Cells; endogenous in cells; host or cells: SW1573 cells
The experiment in a line: BRM degradation (Dmax and DC50) in SW1573 cells, Western blot screen / In-Cell Western screen. It is filed as cell-based. The settings on record: overnight (18-20 hours) treatment; for Dmax: read-out: Dmax (%)** (% degraded). The protocol: To assess BRM degradation (Dmax and DC50) cells were seeded at 8000/well in 96-well black/clear-bottom plates in 180 μL DMEM growth media (containing 1% pen-strep, 1% HEPES and 10% FBS) per well. Plates were incubated overnight to allow adhesion. The next morning cells were treated by adding 20 μL of 10× target compound concentration (1% DMSO) to appropriate wells and returned to incubator for overnight (18-20 hours). The final DMSO concentration was 0.1%.
For lysing, adherent cells were washed once with 100 μL of DPBS. Cells were lysed in 40 μL of 1×RIPA+HALT protease inhibitor on ice for 10 minutes and frozen until use at −80° C. Thawed lysates were cleaned by filtration in 1.2 µm filter plates, or alternatively, were spun clean at 2300 g at 4° C. for 30 minutes.
For blotting, for each Western sample 30 μL of lysate was added to 10 μL of 4× LDS sample buffer, then denatured at 95° C. for 5 minutes in the thermal cycler and placed on ice. Samples were loaded on 4-15% Tris/Glycine gels and run for 25 minutes at 250 constant volts in 1× Tris/Glycine buffer with 4 μL of ladder and 12 μL of each sample loaded for each blot. Protein was transferred from gels to NC with BioRad Turbo dry-transfer unit with the Turbo/midi default program. All blots were rinsed with ddH2O and blocked for 1 hour at room temperature in 5% BSA in TBST (0.1%) on rocker. Blots were exposed to primary antibody in 5% BSA in TBST (0.1%) overnight at 4° C. on rocker (1:1000 for BRM (Cell Signaling Tech. cat #11966) and 1:2000 for alpha-tubulin (Cell Signaling Tech. cat #3873), a control protein. Blot was washed with TBST (0.1%) three times for 5 minutes on rocker at room temperature. Secondary antibody was added, and blots were incubated on a room temperature rocker for 1 hour with 1:18,000 anti-rabbit-HRP and/or anti-mouse-HRP in 5% BSA in TBST (0.1%). Blots were washed three times in TBST (0.1%) for 5 minutes at room temperature on the rocker. Signal was developed with Femto Maximum Sensitivity substrate for 4 minutes and blots read on ChemiDoc™.
To assess BRM degradation (Dmax and DC50), cells were seeded at 8000/well in 96-well black/clear-bottom plates in 180 μL DMEM growth media (containing 1% pen-strep, 1% HEPES and 10% FBS) per well. Plates were incubated overnight to allow adhesion. The next morning cells were treated by adding 20 μL of 10× compound (1% DMSO) to appropriate wells and returned to incubator for overnight (18-20 hours). The final DMSO concentration was 0.1%.
For processing, the plates were removed from incubator, the media was removed, and immediately 200 μL of cold (4° C.) DPBS was added to all wells. DPBS was then removed, and 50 μL of 4% paraformaldehyde (PFA) in DPBS (4° C.) was added to all wells, and the plates were incubated at room temperature for 20 minutes. PFA was then removed, and 200 μL of TBS-T containing 0.5% Triton X-100 was added to all wells, and the plates were incubated at room temperature for 30 minutes. TBS-T containing 0.5% Triton X-100 was then removed, and 50 μL of Li-Cor blocking solution was added, and the plates were incubated at room temperature for a minimum of one hour. The blocking solution was removed, and 50 μL of Li-Cor blocking solution containing primary antibody cocktail was added (1:1000 for BRM (Cell Signaling Tech. cat #11966) and 1:2000 for alpha-tubulin (Sigma cat #T6074), a control protein. Plates were then placed in cold room until the next day.
The next day plates were washed three times with TBS-T, 200 μL per well. Fifty […] of secondary antibody cocktail in LI-COR blocking solution (anti-rabbit_800 nm and anti-mouse_680 nm) was added to all wells (diluted 1:5000). The plates were incubated at room temperature for at least one hour while protected from light. The plates were washed twice with TBS-T, 200 μL per well.
To read each plate TBS-T was removed, and each plate was inverted tapped on a paper towel. […]

T1 sequence (P51531 whole entry): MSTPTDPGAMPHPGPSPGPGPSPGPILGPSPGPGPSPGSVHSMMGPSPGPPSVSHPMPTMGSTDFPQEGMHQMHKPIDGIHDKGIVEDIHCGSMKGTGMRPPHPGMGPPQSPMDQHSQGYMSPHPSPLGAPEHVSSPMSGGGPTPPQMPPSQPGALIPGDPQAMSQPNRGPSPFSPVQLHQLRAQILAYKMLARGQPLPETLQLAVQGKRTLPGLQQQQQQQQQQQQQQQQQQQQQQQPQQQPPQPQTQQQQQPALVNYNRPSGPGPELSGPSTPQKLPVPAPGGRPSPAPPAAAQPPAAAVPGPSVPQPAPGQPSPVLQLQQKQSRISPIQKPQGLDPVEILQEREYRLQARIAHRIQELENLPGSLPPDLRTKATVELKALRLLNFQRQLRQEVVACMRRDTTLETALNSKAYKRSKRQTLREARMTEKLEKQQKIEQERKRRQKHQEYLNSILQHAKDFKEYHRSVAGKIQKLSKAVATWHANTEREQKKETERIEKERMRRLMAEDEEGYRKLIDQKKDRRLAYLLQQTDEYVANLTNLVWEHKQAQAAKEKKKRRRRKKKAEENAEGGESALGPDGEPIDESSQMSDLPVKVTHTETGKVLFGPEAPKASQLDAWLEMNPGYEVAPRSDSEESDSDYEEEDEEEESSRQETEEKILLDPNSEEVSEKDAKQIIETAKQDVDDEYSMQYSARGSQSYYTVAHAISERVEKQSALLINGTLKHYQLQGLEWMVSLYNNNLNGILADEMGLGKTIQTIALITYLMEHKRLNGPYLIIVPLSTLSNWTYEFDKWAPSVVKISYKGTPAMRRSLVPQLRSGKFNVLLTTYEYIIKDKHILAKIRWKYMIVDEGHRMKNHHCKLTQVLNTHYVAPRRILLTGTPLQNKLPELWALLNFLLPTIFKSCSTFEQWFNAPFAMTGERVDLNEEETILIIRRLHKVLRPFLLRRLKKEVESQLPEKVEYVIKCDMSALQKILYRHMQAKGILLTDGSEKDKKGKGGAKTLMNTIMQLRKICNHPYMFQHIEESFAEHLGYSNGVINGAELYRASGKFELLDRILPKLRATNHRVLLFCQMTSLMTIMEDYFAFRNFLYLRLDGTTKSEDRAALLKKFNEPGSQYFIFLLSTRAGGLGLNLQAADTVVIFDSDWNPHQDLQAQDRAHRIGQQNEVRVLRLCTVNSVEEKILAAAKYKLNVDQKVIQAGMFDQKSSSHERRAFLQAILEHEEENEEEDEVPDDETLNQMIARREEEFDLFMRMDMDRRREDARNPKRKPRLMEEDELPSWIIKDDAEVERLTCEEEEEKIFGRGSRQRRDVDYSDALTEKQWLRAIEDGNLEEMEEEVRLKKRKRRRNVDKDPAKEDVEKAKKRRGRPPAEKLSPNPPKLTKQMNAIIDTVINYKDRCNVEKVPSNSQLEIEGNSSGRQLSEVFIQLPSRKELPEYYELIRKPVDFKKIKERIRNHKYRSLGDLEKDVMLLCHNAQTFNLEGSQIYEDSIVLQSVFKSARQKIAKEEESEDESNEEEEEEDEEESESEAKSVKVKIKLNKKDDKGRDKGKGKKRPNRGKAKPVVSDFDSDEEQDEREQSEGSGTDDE

A word on the DC50: it is the midpoint of the concentration-degradation curve. By Dmax is commonly meant the largest share of the target that was removed. For `Cc1ncsc1-c1ccc([C@H](C)NC(=O)C2C[C@@H](O)CN2C(=O)[C@@H](c2cc(N3CCC(CN4CC[C@H](Oc5cc(N6C7CCC6CN(c6cc(-c8ccccc8O)nnc6N)C7)ccn5)[C@H](F)C4)CC3)no2)C(C)C)cc1` (stereo in doubt) [Compound 50, (2S,4R)-1-[(2R)-2-[3-(4-{[(3R,4S)-4-[(4-{3-[3-amino-6-(2-hydroxyphenyl)pyridazin-4-yl]-3,8-diazabicyclo[3.2.1]octan-8-yl}pyridin-2-yl)oxy]-3-fluoropiperidin-1-yl]methyl}piperidin-1-yl)-1,2-oxazol-5-yl]-3-methylbutanoyl]-4-hydroxy-N-[(1S)-1-[4-(4-methyl-1,3-thiazol-5-yl)phenyl]ethyl]pyrrolidine-2-carboxamide], the DC50 is under 2.5 nM and the Dmax is over 75%.
Consider `Cc1ncsc1-c1ccc([C@H](C)NC(=O)[C@@H]2C[C@@H](O)CN2C(=O)[C@@H](c2cc(N3CCC(CN4CCC5(CC4)CC(N4CCC(C(=O)N6C7CCC6CN(c6cc(-c8ccccc8O)nnc6N)C7)CC4)C5)CC3)no2)C(C)C)cc1` [Compound 58, (2S,4R)-1-[(2R)-2-[3-(4-{[2-(4-{3-[3-amino-6-(2-hydroxyphenyl)pyridazin-4-yl]-3,8-diazabicyclo[3.2.1]octane-8-carbonyl}piperidin-1-yl)-7-azaspiro[3.5]nonan-7-yl]methyl}piperidin-1-yl)-1,2-oxazol-5-yl]-3-methylbutanoyl]-4-hydroxy-N-[(1S)-1-[4-(4-methyl-1,3-thiazol-5-yl)phenyl]ethyl]pyrrolidine-2-carboxamide], for which the DC50 is under 2.5 nM and the Dmax was over 75%.
`Cc1ncsc1-c1ccc([C@H](C)NC(=O)[C@@H]2C[C@@H](O)CN2C(=O)[C@@H](c2cc(N3CCC(CN4CCC5(CC4)CC(N4CCN(CC6(O)CCN(c7cc(-c8ccccc8O)nnc7N)CC6)CC4)C5)CC3)no2)C(C)C)cc1` [Compound 122, (2S,4R)-1-[(2R)-2-{3-[4-({2-[4-({1-[3-amino-6-(2-hydroxyphenyl)pyridazin-4-yl]-4-hydroxypiperidin-4-yl}methyl)piperazin-1-yl]-7-azaspiro[3.5]nonan-7-yl}methyl)piperidin-1-yl]-1,2-oxazol-5-yl}-3-methylbutanoyl]-4-hydroxy-N-[(1S)-1-[4-(4-methyl-1,3-thiazol-5-yl)phenyl]ethyl]pyrrolidine-2-carboxamide]: the DC50 is under 2.5 nM and the Dmax was over 75%.
The like results for `Cc1ncsc1-c1ccc([C@H](C)NC(=O)[C@@H]2C[C@@H](O)CN2C(=O)C(c2cc(N3CCC(OC(=O)N4CCC(O[C@H]5C[C@H](Oc6cc(N7CCN(c8cc(-c9ccccc9O)nnc8N)CC7)ccn6)C5)CC4)CC3)no2)C(C)C)cc1` (stereo partly drawn) [Compound 145, 1-(5-{1-[(2S,4R)-4-hydroxy-2-{[(1S)-1-[4-(4-methyl-1,3-thiazol-5-yl)phenyl]ethyl]carbamoyl}pyrrolidin-1-yl]-3-methyl-1-oxobutan-2-yl}-1,2-oxazol-3-yl)piperidin-4-yl 4-[(1r,3r)-3-[(4-{4-[3-amino-6-(2-hydroxyphenyl)pyridazin-4-yl]piperazin-1-yl}pyridin-2-yl)oxy]cyclobutoxy]piperidine-1-carboxylate] were, in that order, 2.5 to 10 nM and over 75%.
The like results for `Cc1ncsc1-c1ccc([C@H](C)NC(=O)[C@@H]2C[C@@H](O)CN2C(=O)[C@@H](c2cc(N3CCC(CN4CC5(CC(N6CCO[C@H](CN7C8CCC7CN(c7cc(-c9ccccc9O)nnc7N)C8)C6)C5)C4)CC3)no2)C(C)C)cc1` [Compound 141, (2S,4R)-1-[(2R)-2-{3-[4-({6-[(2S)-2-({3-[3-amino-6-(2-hydroxyphenyl)pyridazin-4-yl]-3,8-diazabicyclo[3.2.1]octan-8-yl}methyl)morpholin-4-yl]-2-azaspiro[3.3]heptan-2-yl}methyl)piperidin-1-yl]-1,2-oxazol-5-yl}-3-methylbutanoyl]-4-hydroxy-N-[(1S)-1-[4-(4-methyl-1,3-thiazol-5-yl)phenyl]ethyl]pyrrolidine-2-carboxamide] were, in that order, under 2.5 nM and over 75%.
For `Cc1ncsc1-c1ccc([C@H](C)NC(=O)[C@@H]2C[C@@H](O)CN2C(=O)[C@H](c2cc(N3CCC(CN4CCC(O[C@H]5C[C@H](Oc6cc(N7C8CCC7CN(c7cc(-c9ccccc9O)nnc7N)C8)ccn6)C5)CC4)CC3)no2)C(C)C)c(N)c1` [Compound 5, (2S,4R)-N-[(1S)-1-[2-amino-4-(4-methyl-1,3-thiazol-5-yl)phenyl]ethyl]-4-hydroxy-1-[(2S)-3-methyl-2-{3-[4-({4-[(1r,3r)-3-[(4-{3-[3-amino-6-(2-hydroxyphenyl)pyridazin-4-yl]-3,8-diazabicyclo[3.2.1]octan-8-yl}pyridin-2-yl)oxy]cyclobutoxy]piperidin-1-yl}methyl)piperidin-1-yl]-1,2-oxazol-5-yl}butanoyl]pyrrolidine-2-carboxamide], the DC50 is at least 30 nM.
With `CC(C)[C@@H](C(=O)N1C[C@H](O)C[C@H]1C(=O)N[C@@H](C)c1ccc(C#N)cc1)c1cc(N2CCC(CN3CCC(O[C@H]4C[C@H](Oc5cc(N6C7CCC6CN(c6cc(-c8ccccc8O)nnc6N)CC7)ccn5)C4)CC3)CC2)no1` (stereo partly drawn) [Compound 14, (2S,4R)-N-[(1S)-1-(4-cyanophenyl)ethyl]-4-hydroxy-1-[(2R)-3-methyl-2-{3-[4-({4-[(1r,3r)-3-[(4-{3-[3-amino-6-(2-hydroxyphenyl)pyridazin-4-yl]-3,9-diazabicyclo[4.2.1]nonan-9-yl}pyridin-2-yl)oxy]cyclobutoxy]piperidin-1-yl}methyl)piperidin-1-yl]-1,2-oxazol-5-yl}butanoyl]pyrrolidine-2-carboxamide], the DC50 is under 2.5 nM and the Dmax was over 75%.
Turning to `Cc1nccn1-c1ccc([C@H](C)NC(=O)[C@@H]2C[C@@H](O)CN2C(=O)[C@@H](c2cc(N3CCC(CN4CCC(O[C@H]5C[C@H](N6CCC(C(C)n7cc(C#Cc8cc(-c9ccccc9O)nnc8N)cn7)CC6)C5)CC4)CC3)no2)C(C)C)cc1` (stereo partly drawn) [Compound 91, (2S,4R)-4-hydroxy-N-[(1S)-1-[4-(2-methyl-1H-imidazol-1-yl)phenyl]ethyl]-1-[(2R)-3-methyl-2-{3-[4-({4-[(1r,3r)-3-{4-[1-(4-{2-[3-amino-6-(2-hydroxyphenyl)pyridazin-4-yl]ethynyl}-1H-pyrazol-1-yl)ethyl]piperidin-1-yl}cyclobutoxy]piperidin-1-yl}methyl)piperidin-1-yl]-1,2-oxazol-5-yl}butanoyl]pyrrolidine-2-carboxamide], the DC50 is under 2.5 nM and the Dmax is over 75%.
With `Cc1nccn1-c1ccc([C@H](C)NC(=O)[C@@H]2C[C@@H](O)CN2C(=O)[C@H](c2cc(N3CCC(CN4CCC(O[C@H]5C[C@H](N6CCC(C(C)n7cc(C#Cc8cc(-c9ccccc9O)nnc8N)cn7)CC6)C5)CC4)CC3)no2)C(C)C)cc1` (stereo partly drawn) [Compound 90, (2S,4R)-4-hydroxy-N-[(1S)-1-[4-(2-methyl-1H-imidazol-1-yl)phenyl]ethyl]-1-[(2S)-3-methyl-2-{3-[4-({4-[(1r,3r)-3-{4-[1-(4-{2-[3-amino-6-(2-hydroxyphenyl)pyridazin-4-yl]ethynyl}-1H-pyrazol-1-yl)ethyl]piperidin-1-yl}cyclobutoxy]piperidin-1-yl}methyl)piperidin-1-yl]-1,2-oxazol-5-yl}butanoyl]pyrrolidine-2-carboxamide], the DC50 is at least 30 nM.
